Experimental data: the supplement of paper PMC13207355

Tests used:
Conditions in all cases: exposure time: 72 h
E13 [1] = patient-derived glioblastoma stem cells of classical subtype; assay: surviving fraction (nuclei count normalised to DMSO); higher = more cells surviving (less toxic)
E21 [2] = patient-derived glioblastoma stem cells of mesenchymal subtype; assay: as above
E28 [3] = patient-derived glioblastoma stem cells of classical subtype; assay: as above
E31 [4] = patient-derived glioblastoma stem cells of proneural subtype; assay: as above
E34 [5] = patient-derived glioblastoma stem cells of proneural subtype; assay: as above
E57 [6] = patient-derived glioblastoma stem cells of mesenchymal subtype; assay: as above
FT3469 [7] = normal neural stem cell line; assay: as above
E13 [8] = assay: phenotypic distance (Euclidean, principal components) from DMSO controls (arbitrary units); higher = stronger morphological change
E21 [9] = assay: as above
E28 [10] = assay: as above
E31 [11] = assay: as above
E34 [12] = assay: as above
E57 [13] = assay: as above
FT3469 [14] = assay: as above
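For phenotypic distance (Euclidean, principal components) from DMSO controls in this document: cell Painting imaging in 384-well plates, CellProfiler features reduced to at least 20 principal components, Euclidean distance versus same-plate DMSO vehicle wells (0.1% v/v), median over six images per well.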
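For surviving fraction (nuclei count normalised to DMSO) in this document: nuclei counted by high-content imaging of Hoechst-stained cells in laminin-coated 384-well plates, relative to 0.1% DMSO vehicle wells, with staurosporine as cell-death control.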

CC(=O)OC[C@H]1O[C@@H]([S-])[C@H](OC(C)=O)[C@@H](OC(C)=O)[C@@H]1OC(C)=O.CCP(CC)CC.[Au+] [Auranofin]
Conditions	phenotypic distance	surviving fraction
E13 [1], 4.1 nM	–	0.841
E13 [1], 12.3 nM	–	1.05
E13 [1], 37 nM	–	1.04
E13 [1], 111.1 nM	–	1.09
E13 [1], 333.3 nM	–	0.968
E13 [1], 1000 nM	–	0.851
E13 [1], 3000 nM	–	0.227
E13 [8], 4.1 nM	0.698	–
E13 [8], 12.3 nM	0.74	–
E13 [8], 37 nM	0.381	–
E13 [8], 111.1 nM	0.629	–
E13 [8], 333.3 nM	0.569	–
E13 [8], 1000 nM	0.919	–
E13 [8], 3000 nM	5.8	–
E21 [2], 4.1 nM	–	0.997
E21 [2], 12.3 nM	–	1
E21 [2], 37 nM	–	1.02
E21 [2], 111.1 nM	–	0.947
E21 [2], 333.3 nM	–	0.979
E21 [2], 1000 nM	–	0.84
E21 [2], 3000 nM	–	0.255
E21 [9], 4.1 nM	0.692	–
E21 [9], 12.3 nM	0.512	–
E21 [9], 37 nM	1.07	–
E21 [9], 111.1 nM	0.632	–
E21 [9], 333.3 nM	1.15	–
E21 [9], 1000 nM	2.27	–
E21 [9], 3000 nM	5.54	–
E28 [3], 4.1 nM	–	1.1
E28 [3], 12.3 nM	–	0.95
E28 [3], 37 nM	–	0.888
E28 [3], 111.1 nM	–	0.581
E28 [3], 333.3 nM	–	0.418
E28 [3], 1000 nM	–	0.177
E28 [3], 3000 nM	–	0.00427
E28 [10], 4.1 nM	1.07	–
E28 [10], 12.3 nM	0.679	–
E28 [10], 37 nM	0.773	–
E28 [10], 111.1 nM	1.25	–
E28 [10], 333.3 nM	1.81	–
E28 [10], 1000 nM	2.9	–
E28 [10], 3000 nM	11.4	–
E31 [4], 4.1 nM	–	1.17
E31 [4], 12.3 nM	–	0.911
E31 [4], 37 nM	–	1.03
E31 [4], 111.1 nM	–	1.13
E31 [4], 333.3 nM	–	1.09
E31 [4], 1000 nM	–	0.723
E31 [4], 3000 nM	–	0.00651
E31 [11], 4.1 nM	1.04	–
E31 [11], 12.3 nM	0.586	–
E31 [11], 37 nM	0.373	–
E31 [11], 111.1 nM	1.33	–
E31 [11], 333.3 nM	1.16	–
E31 [11], 1000 nM	1.4	–
E31 [11], 3000 nM	8.52	–
E34 [5], 4.1 nM	–	0.913
E34 [5], 12.3 nM	–	1.08
E34 [5], 37 nM	–	1.18
E34 [5], 111.1 nM	–	1.01
E34 [5], 333.3 nM	–	0.92
E34 [5], 1000 nM	–	0.993
E34 [5], 3000 nM	–	0.269
E34 [12], 4.1 nM	0.444	–
E34 [12], 12.3 nM	0.588	–
E34 [12], 37 nM	1.03	–
E34 [12], 111.1 nM	0.434	–
E34 [12], 333.3 nM	1.04	–
E34 [12], 1000 nM	0.939	–
E34 [12], 3000 nM	5.66	–
E57 [6], 4.1 nM	–	0.985
E57 [6], 12.3 nM	–	0.96
E57 [6], 37 nM	–	1.12
E57 [6], 111.1 nM	–	0.993
E57 [6], 333.3 nM	–	0.966
E57 [6], 1000 nM	–	0.884
E57 [6], 3000 nM	–	0.0901
E57 [13], 4.1 nM	0.808	–
E57 [13], 12.3 nM	0.759	–
E57 [13], 37 nM	0.726	–
E57 [13], 111.1 nM	0.677	–
E57 [13], 333.3 nM	1.12	–
E57 [13], 1000 nM	2.3	–
E57 [13], 3000 nM	9.6	–
FT3469 [7], 4.1 nM	–	1.13
FT3469 [7], 12.3 nM	–	1.02
FT3469 [7], 37 nM	–	0.955
FT3469 [7], 111.1 nM	–	0.76
FT3469 [7], 333.3 nM	–	0.898
FT3469 [7], 1000 nM	–	0.909
FT3469 [7], 3000 nM	–	0.0719
FT3469 [14], 4.1 nM	0.766	–
FT3469 [14], 12.3 nM	0.505	–
FT3469 [14], 37 nM	0.606	–
FT3469 [14], 111.1 nM	1.02	–
FT3469 [14], 333.3 nM	0.835	–
FT3469 [14], 1000 nM	1.28	–
FT3469 [14], 3000 nM	5.55	–

CCN1CCN(C(=O)Cc2ccc(Nc3ncc(F)c(Nc4ccc(C(=O)Nc5ccccc5Cl)cc4)n3)cc2)CC1 [Aurora-A Inhibitor I]
Conditions	phenotypic distance	surviving fraction
E13 [1], 4.1 nM	–	0.898
E13 [1], 12.3 nM	–	0.858
E13 [1], 37 nM	–	0.898
E13 [1], 111.1 nM	–	0.786
E13 [1], 333.3 nM	–	0.755
E13 [1], 1000 nM	–	0.643
E13 [1], 3000 nM	–	0.588
E13 [8], 4.1 nM	0.68	–
E13 [8], 12.3 nM	0.752	–
E13 [8], 37 nM	1.14	–
E13 [8], 111.1 nM	1.23	–
E13 [8], 333.3 nM	1.57	–
E13 [8], 1000 nM	2.01	–
E13 [8], 3000 nM	2.52	–
E21 [2], 4.1 nM	–	0.962
E21 [2], 12.3 nM	–	0.968
E21 [2], 37 nM	–	0.937
E21 [2], 111.1 nM	–	1.04
E21 [2], 333.3 nM	–	0.873
E21 [2], 1000 nM	–	0.369
E21 [2], 3000 nM	–	0.0545
E21 [9], 4.1 nM	0.463	–
E21 [9], 12.3 nM	0.798	–
E21 [9], 37 nM	0.695	–
E21 [9], 111.1 nM	0.686	–
E21 [9], 333.3 nM	0.809	–
E21 [9], 1000 nM	3.84	–
E21 [9], 3000 nM	8.57	–
E28 [3], 4.1 nM	–	0.826
E28 [3], 12.3 nM	–	1.04
E28 [3], 37 nM	–	0.98
E28 [3], 111.1 nM	–	1.01
E28 [3], 333.3 nM	–	0.732
E28 [3], 1000 nM	–	0.295
E28 [3], 3000 nM	–	0.265
E28 [10], 4.1 nM	0.837	–
E28 [10], 12.3 nM	1.2	–
E28 [10], 37 nM	0.715	–
E28 [10], 111.1 nM	0.655	–
E28 [10], 333.3 nM	1.3	–
E28 [10], 1000 nM	5.35	–
E28 [10], 3000 nM	7.22	–
E31 [4], 4.1 nM	–	0.968
E31 [4], 12.3 nM	–	0.879
E31 [4], 37 nM	–	0.989
E31 [4], 111.1 nM	–	0.819
E31 [4], 333.3 nM	–	0.602
E31 [4], 1000 nM	–	0.0846
E31 [4], 3000 nM	–	0.0618
E31 [11], 4.1 nM	0.624	–
E31 [11], 12.3 nM	0.904	–
E31 [11], 37 nM	0.48	–
E31 [11], 111.1 nM	0.975	–
E31 [11], 333.3 nM	1.09	–
E31 [11], 1000 nM	6.37	–
E31 [11], 3000 nM	11.8	–
E34 [5], 4.1 nM	–	0.935
E34 [5], 12.3 nM	–	0.848
E34 [5], 37 nM	–	0.988
E34 [5], 111.1 nM	–	0.958
E34 [5], 333.3 nM	–	0.736
E34 [5], 1000 nM	–	0.635
E34 [5], 3000 nM	–	0.198
E34 [12], 4.1 nM	0.739	–
E34 [12], 12.3 nM	0.951	–
E34 [12], 37 nM	0.479	–
E34 [12], 111.1 nM	0.728	–
E34 [12], 333.3 nM	0.971	–
E34 [12], 1000 nM	1.96	–
E34 [12], 3000 nM	9.28	–
E57 [6], 4.1 nM	–	0.996
E57 [6], 12.3 nM	–	0.998
E57 [6], 37 nM	–	0.968
E57 [6], 111.1 nM	–	1.03
E57 [6], 333.3 nM	–	0.905
E57 [6], 1000 nM	–	0.513
E57 [6], 3000 nM	–	0.0372
E57 [13], 4.1 nM	0.556	–
E57 [13], 12.3 nM	1.22	–
E57 [13], 37 nM	0.495	–
E57 [13], 111.1 nM	0.921	–
E57 [13], 333.3 nM	1.17	–
E57 [13], 1000 nM	3.49	–
E57 [13], 3000 nM	11.6	–
FT3469 [7], 4.1 nM	–	1.01
FT3469 [7], 12.3 nM	–	0.895
FT3469 [7], 37 nM	–	0.866
FT3469 [7], 111.1 nM	–	0.883
FT3469 [7], 333.3 nM	–	1.04
FT3469 [7], 1000 nM	–	0.483
FT3469 [7], 3000 nM	–	0.394
FT3469 [14], 4.1 nM	0.518	–
FT3469 [14], 12.3 nM	0.954	–
FT3469 [14], 37 nM	0.712	–
FT3469 [14], 111.1 nM	0.933	–
FT3469 [14], 333.3 nM	0.835	–
FT3469 [14], 1000 nM	1.89	–
FT3469 [14], 3000 nM	13.2	–
